These results are taken from US10494412B2, “Peptides” (HOX THERAPEUTICS LIMITED, priority 2015, dated 2019).

For data set [1], the system named is PC3 cells. As to conditions: for PC3 2 hr IC50 change relative to HXR9: fold difference in IC50 relative to HXR9, 2 hr; for PC3 96 hr IC50 change relative to HXR9: fold difference in IC50 relative to HXR9, 96 hr.
Method: (§1) The cytotoxicity of the peptides on the prostate cancer derived cell lines DU145 and PC3 was tested as previously described (Morgan et al. 2014, ibid), using the MTT assay for metabolic activity. The cytotoxic drug Docetaxel (a standard chemotherapeutic drug) was included as a positive control.
(§2) Doses are in μM (micromoles), and the mean value from 3 experiments is given along with the standard deviation.
The nature of data set [2]: Body weight of PC3 tumour bearing mice. It counts as in vivo. As to conditions: intratumoural. On the procedure: PC3 cells were injected subcutaneously into female or male Balb-c nude mice aged 6 to 12 weeks (Harlan, UK). When the tumour size reached 100 mm^3 mice were injected intratumouraly with PBS, HXR9 or HTL001 at the intervals shown in FIG. 3. Mice were sacrificed when the tumour size reached 1000 mm^3 or at the end of the experiment (36 days). Tumours were then excised and immersed in 10% formalin for 24 h and processed for paraffin embedding. 5 μm slices of xenografts in paraffin blocks were made using microtome and different proteins detected by immunohistochemistry.

The target of another data set is T1, HOXB4/PBX2 dimers (Homo sapiens, UniProt P40425).
T1 construct: endogenous in cells; host or cells: MDA-MB-231
T1 sequence (P40425 1-430): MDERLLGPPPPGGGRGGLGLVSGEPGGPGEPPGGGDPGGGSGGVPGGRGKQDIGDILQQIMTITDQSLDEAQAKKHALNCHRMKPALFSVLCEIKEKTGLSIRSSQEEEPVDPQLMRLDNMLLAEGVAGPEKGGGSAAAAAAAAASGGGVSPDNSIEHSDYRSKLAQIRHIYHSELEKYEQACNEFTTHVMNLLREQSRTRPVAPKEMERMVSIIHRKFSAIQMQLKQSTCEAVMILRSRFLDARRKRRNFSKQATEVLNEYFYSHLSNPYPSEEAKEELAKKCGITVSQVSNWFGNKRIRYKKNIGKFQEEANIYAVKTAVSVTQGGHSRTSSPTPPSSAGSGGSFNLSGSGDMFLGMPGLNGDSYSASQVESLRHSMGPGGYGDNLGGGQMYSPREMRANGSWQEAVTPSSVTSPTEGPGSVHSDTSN
The data set can be described thus: Cell based ELISA assay for HOX/PBX binding. As to conditions: MDA-MB-231 cells, 4 hours, compared to DMSO, SEM, read-out: % inhibition of HOXB4/PBX2 dimer formation. On the procedure:
In order to directly assess the ability of each peptide to disrupt HOX/PBX binding a cell-based assay system was developed that could allow the formation of HOX/PBX/DNA dimers. Cultured MDA-MB-231 cells were treated with 10 μM of each peptide for 4 hours and then used to generate a cell lysate using a standard preparation method as described below. HOXB4/PBX2 dimers were then measured using an ELISA-based system as detailed in the table below. The values from this assay are expressed as % inhibition of dimer formation compared to a negative control (DMSO).
1. Collect approximately 5.0×10^7 cells by low-speed centrifugation at RT for 5 min. Carefully remove culture medium.
2. Wash the cellular debris (pellet) with PBS at RT, and collect by low-speed centrifugation. Carefully remove supernatant (total protein).
3. Add 1.0 ml of pre-cold RIPA buffer (or other appropriate buffer) with freshly added (Protease Inhibitors) and/or (Phosphatase Inhibitors). Gently resuspend cells in RIPA buffer with a pipet and incubate on ice for 30 min.
4. Further disrupt and homogenize cells by passing through a 21-gauge needle, dounce homogenization or sonication, taking care not to raise the temperature of the lysate. (Optional: Add 10 μl of 10 mg/ml PMSF stock) Incubate 30 min on ice.
5. Transfer to microcentrifuge tube(s) and centrifuge at 10,000×g for 10 min at 4° C. […]
For orientation: ELISA stands for enzyme-linked immunosorbent assay.

Data set [3] concerns PC3 cells. Nature of the data set: cells. The conditions noted are these: Homo sapiens, PC-3, 2 h, read-out: PC3 2 hr IC50 (±SD).
Method: as §1, §2
Setting [4] is: read-out: PC3 2 hr IC50 (±SD), PC3 cells, 2 hr, MTT, mean of 3 experiments ± SD.
Where [5] appears, read: read-out: PC3 96 hr IC50 (±SD), PC3 cells, 96 hr, MTT, mean of 3 experiments ± SD.

Read-outs that look alike come from different tables or passages of the source. Where no end group is shown, it is not given here.

Consider “WYPAMKKHHRRRRRRRRR [CXR9, WYPAMKKHHRRRRRRRRR]”, for which the IC50 in the data set on PC3 cells [1] (2 h) and in the data set on PC3 cells [1] (96 h) was above 80 µM throughout.
For WYPWMKKAARRRRRRRRR [HXR9AS7], the “PC3 2 hr IC50 change relative to HXR9” value with PC3 cells [1] is reported as 0.64 fold. Besides, in the data set with PC3 cells [1], the “PC3 96 hr IC50 change relative to HXR9” value is recorded as 1.08 fold. Moreover, the half-inhibitory concentration (IC50) – broadly, the concentration that gives 50% inhibition – with PC3 cells [1] (setting [4]) amounted to 45 µM; in the data set with PC3 cells [1] (setting [5]), 40 µM.
Consider “WYKWMKKAARRRRRRRRR [HTL001, WYKWMKKAARRRRRRRRR]”, for which, in data set [2], the “Maximum % weight loss” value amounted to 0%. Besides, the inhibition at 10 µM at HOXB4/PBX2 dimers amounted to 28.2%.
Regarding WYKWMKKRRRRRRRRR [HXR9KS3noH], the “PC3 2 hr IC50 change relative to HXR9” value with PC3 cells [1] is reported as 1.32 fold. In addition, the “PC3 96 hr IC50 change relative to HXR9” value in the data set with PC3 cells [1] came to 2.05 fold. In addition, the IC50 came out at 22 µM in the data set on PC3 cells [1] (setting [4]) and 21 µM in the data set with PC3 cells [1] (setting [5]).
With WYKWMKKHHRRRRRRRRR [HXR9KS3], in the data set with PC3 cells [1], the “PC3 2 hr IC50 change relative to HXR9” value was 1.53 fold and the “PC3 96 hr IC50 change relative to HXR9” value is listed as 2.53 fold. In the data set with PC3 cells [1] (setting [4]), the IC50 was 19 µM. For the same molecule, the IC50 in the data set on PC3 cells [1] (setting [5]) was 17 µM.
Turning to `CC(=O)O[C@@]12CO[C@@H]1C[C@H](O)[C@@]1(C)C(=O)[C@H](O)C3=C(C)[C@@H](OC(=O)[C@H](O)[C@@H](NC(=O)OC(C)(C)C)c4ccccc4)C[C@@](O)([C@@H](OC(=O)c4ccccc4)[C@H]21)C3(C)C` [Docetaxel], in the data set with PC3 cells [3], the IC50 was determined as 4 µM.
Regarding WYPWMKKRRRRRRRRR [HXR9noH], in the data set on PC3 cells [1], the “PC3 2 hr IC50 change relative to HXR9” value stood at 0.48 fold. Besides, in the data set on PC3 cells [1], the “PC3 96 hr IC50 change relative to HXR9” value was found to be 0.80 fold. In addition, the IC50 was determined as 60 µM in the data set on PC3 cells [1] (setting [4]) and 54 µM in the data set on PC3 cells [1] (setting [5]).
As to “WYPWMKKHHRRRRRRRRR [HXR9, WYPWMKKHHRRRRRRRRR]”, the “Maximum % weight loss” value in data set [2] was found to be 0%.
